According to the SangsterLogP compilation:

logP | Compound
4.89 | CCOc1cc2c(cc1Cl)C=CC(C)(C)O2
2.77 | COc1cc2c(cc1OC)OC(C)(C)C=C2
3.46 | COc1ccc2c(c1)OC(C)(C)C=C2
4.49 | COc1cc2c(cc1OCC(F)(F)F)OC(C)(C)C=C2
4.79 | COc1cc2c(cc1OCC(F)(F)F)C=CC(C)(C)O2
3.52 | COc1cc2c(cc1OC)SC(C)(C)C=C2
4.55 | CC1(C)C=Cc2ccc(Cl)cc2O1
3.36 | CCOc1cc2c(cc1OC)C=CC(C)(C)O2
3.42 | CC1(C)C=Cc2ccccc2O1
4.03 | Cc1ccc2c(c1)OC(C)(C)C=C2
5.15 | CCOc1cc2c(cc1Br)C=CC(C)(C)O2

Continued, molecule first:

Compound | logP
COc1ccc2c(c1)SC(C)(C)C=C2 | 4.32
COc1c2c(cc3c1OC(C)(C)CC3)C=CC(C)(C)O2 | 4.47
CC1(C)C=Cc2cc(Br)c3c(c2O1)CCC(C)(C)O3 | 6.33
Cc1c2c(cc3c1OC(C)(C)CC3)C=CC(C)(C)O2 | 6.2
CC1(C)C=Cc2cc(C(C)(C)C)c3c(c2O1)CCC(C)(C)O3 | 8.17
CC1(C)C=Cc2c(c3c(c4c2OC(C)(C)CC4)OC(C)(C)CC3)O1 | 5.8
CCc1c2c(cc3c1OC(C)(C)C=C3)C=CC(C)(C)O2 | 6.89
CC1(C)C=Cc2c3c(c4c(c2O1)CCC(C)(C)O4)OC(C)(C)CC3 | 7.67
COCCOCCOCCOc1cc2c(c3c1OC(C)(C)CC3)OC(C)(C)CC2 | 4.86
CC1(C)C=Cc2c(ccc3c2CCC(C)(C)O3)O1 | 4.01
CC1(C)C=Cc2cccc(Cl)c2O1 | 4.06
CCc1cc2c(c3c1OC(C)(C)CC3)OC(C)(C)C=C2 | 6.97
CC1(C)C=Cc2cc(Cl)c3c(c2O1)CCC(C)(C)O3 | 6.14
